Assay results published in patent US20230024302A1, “2,3,5-TRISUBSTITUTED PYRAZOLO[1,5-A]PYRIMIDINE COMPOUNDS” (Arcus Biosciences, Inc., priority 2019, published 2023).

Tests used:
PI3Kγ (p120γ) = target: T1, PI3Kγ (p120γ) (Homo sapiens, UniProt P48736); assay: Inhibition of PI3K kinase activity (ADP Glo), PI3Kγ; settings: read-out: biochemical potency (PI3Kγ IC50)
T1 construct: purchased Promega V1761
Summary of the method: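 IC50 values come from a 4-parameter nonlinear fit of ADP-Glo luminescence, which measures ADP produced as PIP2 is phosphorylated to PIP3. The p120γ enzyme (2× stock 8 nM) sat with compound 1 h at rt before substrate (2× stocks: 50 μM ATP, 0.1 mg/ml PIP2) was added. Phosphorylation then proceeded 60 min at rt.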

PI3Kγ = target: T2, PI3Kγ (Homo sapiens, UniProt P48736); assay: PI3Kγ cellular assay in THP-1 cells (AKT pS473 AlphaLISA); type: cell-based; settings: AKT pS473, read-out: cellular potency (PI3Kγ IC50)
T2 construct: host or cells: THP-1
T2 sequence (P48736 whole entry): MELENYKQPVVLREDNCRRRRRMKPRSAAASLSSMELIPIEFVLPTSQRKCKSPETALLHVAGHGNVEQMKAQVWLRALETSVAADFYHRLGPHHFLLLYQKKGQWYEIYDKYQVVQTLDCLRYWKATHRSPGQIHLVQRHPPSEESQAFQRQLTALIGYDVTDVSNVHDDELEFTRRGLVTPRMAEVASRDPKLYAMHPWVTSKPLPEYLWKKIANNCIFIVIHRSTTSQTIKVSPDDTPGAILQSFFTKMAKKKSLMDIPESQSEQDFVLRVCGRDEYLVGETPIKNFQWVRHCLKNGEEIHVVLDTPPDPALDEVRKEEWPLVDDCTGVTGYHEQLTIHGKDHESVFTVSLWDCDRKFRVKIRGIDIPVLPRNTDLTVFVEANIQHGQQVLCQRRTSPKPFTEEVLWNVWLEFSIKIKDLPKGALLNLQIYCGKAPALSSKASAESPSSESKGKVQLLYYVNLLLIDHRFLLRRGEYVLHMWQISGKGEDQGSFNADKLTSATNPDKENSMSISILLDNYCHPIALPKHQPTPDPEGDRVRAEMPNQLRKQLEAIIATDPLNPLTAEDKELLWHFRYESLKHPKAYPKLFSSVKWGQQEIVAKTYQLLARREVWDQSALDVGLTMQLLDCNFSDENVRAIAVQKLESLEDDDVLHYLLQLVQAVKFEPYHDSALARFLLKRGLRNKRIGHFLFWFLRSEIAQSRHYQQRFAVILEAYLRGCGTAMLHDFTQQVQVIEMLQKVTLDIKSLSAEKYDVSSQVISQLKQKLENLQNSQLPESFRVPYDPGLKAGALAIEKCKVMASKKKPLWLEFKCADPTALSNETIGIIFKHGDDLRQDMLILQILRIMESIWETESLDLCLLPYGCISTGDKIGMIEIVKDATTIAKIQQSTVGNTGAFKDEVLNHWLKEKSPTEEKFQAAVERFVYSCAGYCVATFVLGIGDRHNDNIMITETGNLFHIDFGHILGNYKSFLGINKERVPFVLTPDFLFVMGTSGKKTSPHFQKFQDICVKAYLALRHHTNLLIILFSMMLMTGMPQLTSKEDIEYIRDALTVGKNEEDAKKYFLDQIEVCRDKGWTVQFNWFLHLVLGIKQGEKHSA
Summary of the method: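 Endogenous AKT S473 phosphorylation, detected by AlphaLISA in lysates, serves as the PI3Kγ activity read-out in stimulated, serum-starved THP-1 cells (1.8×10^5/well).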

T1 sequence (P48736 whole entry): as above

SMILES | IC50 (PI3Kγ (p120γ)) | IC50 (PI3Kγ)
C[C@@H](C1CC1)N1Cc2cc(-c3ccn4nc(N)c(C(=O)NC5C6CC7CC5CC(O)(C7)C6)c4n3)cc(NS(C)(=O)=O)c2C1=O (stereo partly drawn) [Example 377] | < 0.1 µM | < 0.1 µM
C[C@@H](C1CC1)N1Cc2cc(-c3ccn4nc(N)c(C(=O)Nc5cccc(F)c5)c4n3)cc(NS(C)(=O)=O)c2C1=O [Example 378] | < 0.1 µM | 0.1 to 1 µM
C[C@@H](C1CC1)N1Cc2cc(-c3ccn4nc(N)c(C(=O)Nc5ccnc(CO)c5)c4n3)cc(NS(C)(=O)=O)c2C1=O [Example 379] | < 0.1 µM | > 1 µM
C[C@@H](C1CC1)N1Cc2cc(-c3ccn4nc(N)c(C(=O)N[C@@H]5CCCC[C@H]5O)c4n3)cc(NS(C)(=O)=O)c2C1=O [Example 384] | < 0.1 µM | 0.1 to 1 µM
C[C@@H](C1CC1)N1Cc2cc(-c3ccn4nc(N)c(C(=O)Nc5cccc(C#N)c5)c4n3)cc(NS(C)(=O)=O)c2C1=O [Example 386] | < 0.1 µM | 0.1 to 1 µM
C[C@@H](C1CC1)N1Cc2cc(-c3ccn4nc(N)c(C(=O)Nc5ccc(F)cc5)c4n3)cc(NS(C)(=O)=O)c2C1=O [Example 388] | < 0.1 µM | 0.1 to 1 µM
C[C@@H](C1CC1)N1Cc2cc(-c3ccn4nc(N)c(C(=O)Nc5ccc(CC(F)(F)F)nc5)c4n3)cc(NS(C)(=O)=O)c2C1=O [Example 389] | < 0.1 µM | 0.1 to 1 µM
Cc1ccccc1NC(=O)c1c(N)nn2ccc(-c3cc4c(c(NS(C)(=O)=O)c3)C(=O)N([C@@H](C)C3CC3)C4)nc12 [Example 391] | < 0.1 µM | 0.1 to 1 µM
C[C@@H](C1CC1)N1Cc2cc(-c3ccn4nc(N)c(C(=O)Nc5ccc(Cl)cc5)c4n3)cc(NS(C)(=O)=O)c2C1=O [Example 392] | < 0.1 µM | > 1 µM
C[C@@H](C1CC1)N1Cc2cc(-c3ccn4nc(N)c(C(=O)Nc5ccc(C#N)cc5)c4n3)cc(NS(C)(=O)=O)c2C1=O [Example 393] | < 0.1 µM | 0.1 to 1 µM
COC(=O)c1ccc(NC(=O)c2c(N)nn3ccc(-c4cc5c(c(NS(C)(=O)=O)c4)C(=O)N([C@@H](C)C4CC4)C5)nc23)cn1 [Example 395] | < 0.1 µM | 0.1 to 1 µM
C[C@@H](C1CC1)N1Cc2cc(-c3ccn4nc(N)c(C(=O)Nc5ccccn5)c4n3)cc(NS(C)(=O)=O)c2C1=O [Example 396] | < 0.1 µM | 0.1 to 1 µM

The remaining lines, values ahead:

IC50 (PI3Kγ (p120γ)) | IC50 (PI3Kγ) | SMILES
< 0.1 µM | 0.1 to 1 µM | C[C@@H](C1CC1)N1Cc2cc(-c3ccn4nc(N)c(C(=O)N[C@@H](CO)C(F)(F)F)c4n3)cc(NS(C)(=O)=O)c2C1=O [Example 376]
< 0.1 µM | 0.1 to 1 µM | COc1ccc(NC(=O)c2c(N)nn3ccc(-c4cc5c(c(NS(C)(=O)=O)c4)C(=O)N([C@@H](C)C4CC4)C5)nc23)cc1 [Example 380]
< 0.1 µM | 0.1 to 1 µM | C[C@@H](C1CC1)N1Cc2cc(-c3ccn4nc(N)c(C(=O)NCC5(O)CC5)c4n3)cc(NS(C)(=O)=O)c2C1=O [Example 381]
< 0.1 µM | 0.1 to 1 µM | C[C@H](NC(=O)c1c(N)nn2ccc(-c3cc4c(c(NS(C)(=O)=O)c3)C(=O)N([C@@H](C)C3CC3)C4)nc12)C(N)=O [Example 382]
< 0.1 µM | 0.1 to 1 µM | C[C@@H](C1CC1)N1Cc2cc(-c3ccn4nc(N)c(C(=O)NCCO)c4n3)cc(NS(C)(=O)=O)c2C1=O [Example 383]
< 0.1 µM | 0.1 to 1 µM | COC[C@@H](C)NC(=O)c1c(N)nn2ccc(-c3cc4c(c(NS(C)(=O)=O)c3)C(=O)N([C@@H](C)C3CC3)C4)nc12 [Example 385]
< 0.1 µM | 0.1 to 1 µM | COc1cncc(NC(=O)c2c(N)nn3ccc(-c4cc5c(c(NS(C)(=O)=O)c4)C(=O)N([C@@H](C)C4CC4)C5)nc23)c1 [Example 387]
< 0.1 µM | 0.1 to 1 µM | COCC(C)(C)NC(=O)c1c(N)nn2ccc(-c3cc4c(c(NS(C)(=O)=O)c3)C(=O)N([C@@H](C)C3CC3)C4)nc12 [Example 390]
< 0.1 µM | 0.1 to 1 µM | C[C@@H](C1CC1)N1Cc2cc(-c3ccn4nc(N)c(C(=O)NC5CC5(C)C)c4n3)cc(NS(C)(=O)=O)c2C1=O (stereo partly drawn) [Example 394]
